We go through four molecules from paper PMC12750394 (ACS Omega, 2025).

In one assay the test system is B. subtilis. The assay is described as follows: microbe, parasite or virus in culture. To be noted: for average MIC against B. subtilis: microbroth dilution, 4 × 10^6 CFU/mL, 1 h at 37 °C, TSB added, 24 h at 37 °C, growth inhibition read visually, highest DesHDAP2 concentration […], three technical replicates each from four independent biological experiments; for MIC: Bacillus subtilis, read-out: average MIC against B. subtilis. The source says: The bacteria species and strains used in this study were: Top10 E. coli containing a pET plasmid with ampicillin resistance (Invitrogen Top10), S. marcescens (Carolina Biosciences #155554A), E. aerogenes (ATCC #51697), E. raffinosus (ATCC #49464), S. epidermidis (ATCC #14990) and B. subtilis (ATCC #6501). For radial diffusion, microbroth dilution, and checkerboard assays, bacterial cultures in tryptic soy broth (TSB) were started from individual colonies picked from agar plates and grown overnight (≈16–18 h) in a shaking incubator at 37 °C. Overnight bacterial cultures were diluted into fresh TSB and grown at 37 °C to an optical density (OD600) of 0.5–0.7. Bacteria were pelleted via centrifuge at 1500g at room temperature for 10 min, washed once with cold sterile sodium phosphate buffer (10 mM Na3PO4, 100 mM NaCl, pH 7.4), then pelleted and resuspended again in sodium phosphate buffer.
Antimicrobial activity was assessed using the microbroth dilution assay. A resuspended bacterial culture prepared as described above was mixed with deionized water to reach a final bacterial concentration of 4 × 10^6 CFU/mL. A twofold dilution series of peptides in deionized water was prepared. 10 μL of the serial dilutions were added to 90 μL of the 4 × 10^6 CFU/mL bacterial solution in a 96-well plate. […] After incubating for 1 h at 37 °C, 50 μL of TSB was added to each testing well. After incubation for 24 h at 37 °C, growth inhibition was determined visually to assess MIC.
On the technique in general: Broth dilution looks for growth in wells or tubes with falling amounts of substance.

The next assay relates to E. coli. The assay is described as follows: microbe, parasite or virus in culture. The note with it: for average MIC against E. coli: microbroth dilution, 4 × 10^6 CFU/mL, 1 h at 37 °C, TSB added, 24 h at 37 °C, growth inhibition read visually, highest DesHDAP2 concentration […], three technical replicates each from four independent biological experiments. How it is done: For radial diffusion, microbroth dilution, and checkerboard assays, bacterial cultures in tryptic soy broth (TSB) were started from individual colonies picked from agar plates and grown overnight (≈16–18 h) in a shaking incubator at 37 °C. Overnight bacterial cultures were diluted into fresh TSB and grown at 37 °C to an optical density (OD600) of 0.5–0.7. Bacteria were pelleted via centrifuge at 1500g at room temperature for 10 min, washed once with cold sterile sodium phosphate buffer (10 mM Na3PO4, 100 mM NaCl, pH 7.4), then pelleted and resuspended again in sodium phosphate buffer.
Antimicrobial activity was assessed using the microbroth dilution assay. A resuspended bacterial culture prepared as described above was mixed with deionized water to reach a final bacterial concentration of 4 × 10^6 CFU/mL. A twofold dilution series of peptides in deionized water was prepared. 10 μL of the serial dilutions were added to 90 μL of the 4 × 10^6 CFU/mL bacterial solution in a 96-well plate. […] After incubating for 1 h at 37 °C, 50 μL of TSB was added to each testing well.

Molecules are shown by their SMILES. Bridge positions count the residues as written; N and C are the ends. Square brackets hold non-standard residues; d marks the D form. Peptide text beside a SMILES is read from it. * marks the point of attachment. X1 = CC[C@H](C)CCCCC(=O)*; Dab = NCC[C@H](N)C(=O)O

Regarding `CC[C@H](C)CCCCC(=O)N[C@@H](CCN)C(=O)N[C@H](C(=O)N[C@@H](CCN)C(=O)N[C@H]1CCNC(=O)[C@H]([C@@H](C)O)NC(=O)[C@H](CCN)NC(=O)[C@H](CCN)NC(=O)[C@H](CC(C)C)NC(=O)[C@@H](Cc2ccccc2)NC(=O)[C@H](CCN)NC1=O)[C@@H](C)O` [polymyxin B] (X1-[Dab]T[Dab][Dab][Dab][dF]L[Dab][Dab]T; lactam 4-C (inferred); N-terminus assumed), the “average MIC against B. subtilis” value in the assay with B. subtilis turned out to be 2000 µg/mL. The “average MIC against E. coli” value in the assay on E. coli turned out to be 65 µg/mL.

For the molecule `NC[C@H]1O[C@H](O[C@H]2[C@H](O)[C@@H](O[C@H]3O[C@H](CO)[C@@H](O)[C@H](N)[C@H]3O)[C@H](N)C[C@@H]2N)[C@H](O)[C@@H](O)[C@@H]1O` [kanamycin], the “average MIC against B. subtilis” value with B. subtilis worked out at 3.125 µg/mL. Also, the “average MIC against E. coli” value in the assay with E. coli was 50 µg/mL.

Take `C[C@H]1COc2c(N3CCN(C)CC3)c(F)cc3c(=O)c(C(=O)O)cn1c23` [levofloxacin]: the MIC with B. subtilis stood at 5 µg/mL; in the assay with E. coli (Escherichia coli, read-out: average MIC against E. coli) it was 0.2 µg/mL.

`CN(C)[C@@H]1C(O)=C(C(N)=O)C(=O)[C@@]2(O)C(O)=C3C(=O)c4c(O)cccc4[C@@](C)(O)[C@H]3C[C@@H]12` [tetracycline]: the MIC in the assay on B. subtilis was 15.6 µg/mL.
